Legend:
Type in all cases: functional, cell-based
[1] = tested on: LNCaP; test: Inhibition of cellular proliferation in LNCaP (prostate).; settings: Homo sapiens
[2] = tested on: Jurkat; test: Inhibition of calcium influx in jurkat (T cells).; settings: Homo sapiens
[3] = tested on: Jurkat; test: Inhibition of cellular proliferation in jurkat (T cells).; settings: Homo sapiens
[4] = tested on: MDA-MB-361; test: Inhibition of cellular proliferation in MDA-361 (breast) tumor cells.; settings: Homo sapiens
[5] = tested on: LNCaP; test: Inhibition of calcium influx in LNCaP (prostate).; settings: Homo sapiens, Prostate gland
[6] = tested on: MDA-MB-361; test: Inhibition of calcium influx in MDA-361 (breast) tumor cells.; settings: Homo sapiens

SMILES | IC50 [1] | IC50 [2] | IC50 [3] | IC50 [4] | IC50 [5] | IC50 [6]
COc1ccc(CCN2CCC[C@H]2COCc2ccc(Cl)cc2)cc1 | 14 µM | 25 µM | 18 µM | 15 µM | 10 µM | 100 µM
COc1ccc(CCN2CCC[C@H]2COC(c2ccc(F)cc2)c2ccc(F)cc2)cc1 | 4 µM | 3 µM | 5 µM | 14 µM | 10 µM | 30 µM
COc1ccc(CCN2CCC[C@H]2COC(c2ccccc2)c2ccc(Cl)c(Cl)c2)cc1 (stereo partly specified) | 4 µM | 3 µM | 6 µM | 11 µM | 10 µM | 10 µM
COc1ccc(CCN2CCCCC2COC(c2ccc(Cl)cc2)c2ccc(Cl)cc2)cc1 (stereo unspecified) | 4 µM | 15 µM | 9 µM | 22 µM | 7 µM | 30 µM
COc1ccc(CCN2CCC[C@H]2COC(c2ccccc2)c2ccc(Cl)cc2)cc1 (stereo partly specified) | 4 µM | – | 6 µM | 10 µM | 4 µM | 10 µM
CN1CCC[C@H]1COC(c1ccccc1)c1ccc(Cl)cc1 (stereo partly specified) | 17 µM | 30 µM | 60 µM | 47 µM | 50 µM | 100 µM
COc1ccc(CCN2CCCC(COC(c3ccccc3)c3ccccc3)C2)cc1 (stereo unspecified) | 9.2 µM | 8 µM | 13.8 µM | 17.7 µM | 15 µM | 30 µM
COc1ccc(CCCN2CCC[C@H]2COC(c2ccccc2)c2ccc(Cl)cc2)cc1 (stereo partly specified) | 3.5 µM | 1 µM | 4 µM | 11 µM | 30 µM | 10 µM
COc1ccc(CCN2CCC[C@H]2COC(c2ccccc2)c2ccccc2)cc1 | 10 µM | 10 µM | 12 µM | 29 µM | 30 µM | 30 µM

Continued, values first:

IC50 [1] | IC50 [2] | IC50 [3] | IC50 [4] | IC50 [5] | IC50 [6] | SMILES
15 µM | 30 µM | 40 µM | – | 15 µM | 100 µM | COc1ccc(CCN2CCC[C@H]2COC(c2ccccc2)c2ccc(Br)cc2)cc1 (stereo partly specified)
2.4 µM | 1 µM | 3.8 µM | 13 µM | 12 µM | 10 µM | COc1ccccc1CCN1CCC[C@H]1COC(c1ccccc1)c1ccc(Cl)cc1 (stereo partly specified)
3 µM | 5 µM | 3.6 µM | 11 µM | 4 µM | 25 µM | COc1ccc(CCN2CCC[C@H]2COC(c2ccc(Cl)cc2)c2ccc(Cl)cc2)cc1
6.8 µM | 10 µM | 8.8 µM | 13 µM | 12 µM | 30 µM | COc1ccc(CCN2CCCC(COC(c3ccccc3)c3ccc(Cl)cc3)C2)cc1 (stereo unspecified)
